pIC50: −log10 of the molar value. Calls of active or inactive are those of the source. The calls are words filed in the database; no cut-off is given here.
Legend:
Acetylcholinesterase [1] = target: T1, Acetylcholinesterase (Homo sapiens, UniProt P22303); experiment: Inhibition of AChE (unknown origin) at 10 uM using acetylthiocholine iodide as substrate preincubated for 10 mins followed by substrate addition measured after 10 mins by Ellman's method
Acetylcholinesterase [2] = target: T1, Acetylcholinesterase; experiment: Inhibition of AChE (unknown origin) using acetylthiocholine iodide as substrate preincubated for 10 mins followed by substrate addition measured after 10 mins by Ellman's method

T1 sequence (P22303 whole entry): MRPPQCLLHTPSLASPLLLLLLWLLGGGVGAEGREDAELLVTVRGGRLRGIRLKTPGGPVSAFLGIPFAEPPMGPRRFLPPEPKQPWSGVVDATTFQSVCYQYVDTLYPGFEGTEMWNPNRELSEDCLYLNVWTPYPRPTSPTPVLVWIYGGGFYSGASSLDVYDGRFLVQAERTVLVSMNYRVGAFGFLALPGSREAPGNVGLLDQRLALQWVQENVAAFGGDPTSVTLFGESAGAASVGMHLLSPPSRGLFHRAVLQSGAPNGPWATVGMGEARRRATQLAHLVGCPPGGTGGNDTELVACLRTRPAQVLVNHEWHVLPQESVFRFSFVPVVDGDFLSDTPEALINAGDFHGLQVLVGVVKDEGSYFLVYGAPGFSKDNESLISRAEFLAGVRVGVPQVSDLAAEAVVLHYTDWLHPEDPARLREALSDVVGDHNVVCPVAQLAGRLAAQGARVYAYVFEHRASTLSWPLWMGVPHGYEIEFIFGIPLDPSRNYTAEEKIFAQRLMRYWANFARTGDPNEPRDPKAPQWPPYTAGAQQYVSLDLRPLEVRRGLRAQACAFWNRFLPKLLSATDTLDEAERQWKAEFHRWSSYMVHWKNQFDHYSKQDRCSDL

SMILES | inhibition (Acetylcholinesterase [1]) | pIC50 (Acetylcholinesterase [2])
CC(=O)OC[C@H]1O[C@@H](OC2=C[C@@H]3C(=CC[C@@H]4[C@@]3(C)C(=O)C[C@]3(C)[C@@H]([C@@](C)(O)C(=O)/C=C/C(C)(C)OC(C)=O)[C@H](O)C[C@@]43C)C(C)(C)C2=O)[C@H](O)[C@@H](O)[C@@H]1O | inactive | 
CC(=O)OC(C)(C)CCC(=O)[C@](C)(O)[C@H]1[C@H](O)C[C@@]2(C)[C@@H]3CC=C4[C@@H](C[C@H](O)C(=O)C4(C)C)[C@]3(C)C(=O)C[C@]12C | inactive | 
CC(=O)OC(C)(C)/C=C/C(=O)[C@](C)(O)[C@H]1[C@H](O)C[C@@]2(C)[C@@H]3CC=C4[C@@H](C=C(O)C(=O)C4(C)C)[C@]3(C)C(=O)C[C@]12C | inactive | 
CC(=O)OC(C)(C)/C=C/C(=O)[C@](C)(O)[C@H]1[C@H](O)C[C@@]2(C)[C@@H]3[C@@H](O)C=C4[C@@H](C=C(O[C@@H]5O[C@H](CO)[C@@H](O)[C@H](O)[C@H]5O)C(=O)C4(C)C)[C@]3(C)C(=O)C[C@]12C | inactive | 
CC(=O)OC(C)(C)/C=C/C(=O)[C@](C)(O)[C@H]1[C@H](O)C[C@@]2(C)[C@@H]3CC=C4[C@@H](C[C@H](O[C@@H]5O[C@H](CO)[C@@H](O)[C@H](O)[C@H]5O)C(=O)C4(C)C)[C@]3(C)C(=O)C[C@]12C | inactive | 
CC(=O)OC(C)(C)/C=C/C(=O)[C@](C)(O)[C@H]1[C@H](O)C[C@@]2(C)[C@@H]3CC=C4[C@@H](C[C@H](O)C(=O)C4(C)C)[C@]3(C)C(=O)C[C@]12C | inactive | 
CC(=O)OC(C)(C)/C=C/C(=O)[C@](C)(O)[C@H]1[C@H](O)C[C@@]2(C)[C@@H]3CC=C(C(C)(C)C(=O)O)C4=CC(=O)O[C@](O)(C[C@]12C)[C@@]43C |  | 5.59
CC(=O)OC(C)(C)CCC(=O)[C@](C)(O)[C@H]1[C@H](O)C[C@@]2(C)[C@@H]3CC=C4[C@@H](C[C@H](O[C@@H]5O[C@H](CO)[C@@H](O)[C@H](O)[C@H]5O)C(=O)C4(C)C)[C@]3(C)C(=O)C[C@]12C | inactive | 
CC(=O)OC(C)(C)/C=C/C(=O)[C@](C)(O)[C@H]1[C@H](O)C[C@@]2(C)[C@@H]3CC=C(C(C)(C)C(=O)O)/C(=C\C#N)[C@]3(C)C(=O)C[C@]12C | inactive | 
CC(=O)OC(C)(C)/C=C/C(=O)[C@](C)(O)[C@H]1[C@H](O)C[C@@]2(C)[C@@H]3CC=C(C(C)(C)C(=O)O)/C(=C\C(=O)O)[C@]3(C)C(=O)C[C@]12C |  | 5.51
COC(=O)C(C)(C)C1=CC[C@@H]2[C@@](C)(C(=O)C[C@]3(C)[C@@H]([C@@](C)(O)C(=O)/C=C/C(C)(C)OC(C)=O)[C@H](O)C[C@@]23C)/C1=C/C(=O)O | inactive | 

Reference: ChEMBL document CHEMBL4196184, “Colocynthenins A-D, Ring-A seco-Cucurbitane Triterpenoids from the Fruits of Citrullus colocynthis” (J Nat Prod, 2018)
